These results are taken from ChEMBL document CHEMBL4483862, “Open-source discovery of chemical leads for next-generation chemoprotective antimalarials” (2018).

pIC50: −log10 of the molar value.

As usually defined, the pIC50 is −log10 of the IC50, conventionally taken in molar units. In general, IC90 refers to the concentration at which the effect reaches the 90% level.

This assay has as its system Plasmodium berghei. Description: Luciferase/luciferin-expressing antifolate-resistant parasites were used to infect a culture of HepG2 cells that were pre-incubated with compounds. Infected hepatocytes emit light due to the luciferase reaction. Assay results are presented as the percent inhibition of light emission compared to control. […]. The class given is functional. The following applies: sporozoite; for IC90: read-out: LUCIFERASE INFECTION ASSAY - IC90.

Turning to `COc1ccc(/C=C/C(=O)Nc2ccc(C34CC5CC(CC(O)(C5)C3)C4)cc2)cc1OC`, the IC90 was determined as 4.89 µM. Moreover, for the setting “HEPG2TOX_HILL_SLOPE 4.85, 2.53, HEPG2TOX_R_SQUARED 0.902, 0.960, PBLUC_HILL_SLOPE 2.45, PBLUC_R_SQUARED 0.68, read-out: LUCIFERASE INFECTION ASSAY - IC50”, the pIC50 is 5.70.

Turning to `CC(C)[C@H](NC(=O)c1ccccc1Cl)C(=O)Nc1nc(-c2ccccn2)cs1`, the 90% effect concentration (IC90) was found to be 6.36 µM. Also, the negative-log IC50 (pIC50) (HEPG2TOX_HILL_SLOPE 4.61, HEPG2TOX_R_SQUARED 0.937, PBLUC_HILL_SLOPE 2.78, PBLUC_R_SQUARED 0.749, read-out: LUCIFERASE INFECTION ASSAY - IC50) was 5.54.

For the compound `CC1(C(=O)NCc2ccco2)Cc2c(-c3ccccc3)ccnc2O1` (stereo unspecified), the IC90 came out at 3.99 µM. Also, the pIC50 (HEPG2TOX_HILL_SLOPE 4.72, HEPG2TOX_R_SQUARED 0.753, PBLUC_HILL_SLOPE 10.4, PBLUC_R_SQUARED 0.157, read-out: LUCIFERASE INFECTION ASSAY - IC50) was 5.49.

On to `CS(=O)(=O)Nc1cccc(-c2cn3c(-c4cccs4)cnc3cn2)c1`, for which the IC90 is more than 8.91 µM. Further, the pIC50 (HEPG2TOX_HILL_SLOPE 4.93, HEPG2TOX_R_SQUARED 0.12, read-out: LUCIFERASE INFECTION ASSAY - IC50) is less than 5.05.

In the case of `O=C(Nc1nccs1)c1cc(-c2ccccc2)c(C(F)(F)F)s1`, the IC90 came to 8.66 µM. Besides, the negative-log IC50 (pIC50) (HEPG2TOX_HILL_SLOPE 4.77, HEPG2TOX_R_SQUARED 0.804, PBLUC_HILL_SLOPE 25.8, PBLUC_R_SQUARED 0.401, read-out: LUCIFERASE INFECTION ASSAY - IC50) was 5.10.

`CC1=C(c2nc(-c3ccc(C)cc3)no2)C(c2ccco2)NC(=S)N1` (stereo unspecified): the IC90 is more than 10 µM. Also, the pIC50 (HEPG2TOX_HILL_SLOPE 4.63, HEPG2TOX_R_SQUARED 0.779, PBLUC_HILL_SLOPE 2.07, PBLUC_R_SQUARED 0.517, read-out: LUCIFERASE INFECTION ASSAY - IC50) is 5.12.

With `COc1ccc(OC)c(CCNc2nc3cnc(-c4cccc(OC(F)(F)F)c4)cc3n2C)c1`, the IC90 turned out to be 4.72 µM. Also, the pIC50 (HEPG2TOX_HILL_SLOPE 4.6, HEPG2TOX_R_SQUARED 0.893, PBLUC_HILL_SLOPE 3.53, PBLUC_R_SQUARED 0.694, read-out: LUCIFERASE INFECTION ASSAY - IC50) is 5.60.

Regarding `N#Cc1c(N=Cc2c(O)n(-c3ccc(Br)cn3)c(=O)c3ccccc23)sc2c1CCC2`, the IC90 was more than 10 µM. In addition, under “HEPG2TOX_HILL_SLOPE 5.03, HEPG2TOX_R_SQUARED 0.905, PBLUC_HILL_SLOPE 1.74, PBLUC_R_SQUARED 0.542, read-out: LUCIFERASE INFECTION ASSAY - IC50”, the pIC50 was 5.21.

Regarding `N#C/C(=C\c1ccc(Cl)cc1Cl)c1ccc(O)cc1`, the IC90 is more than 11.4 µM. Also, the pIC50 (HEPG2TOX_HILL_SLOPE 4.92, HEPG2TOX_R_SQUARED 0.97, PBLUC_HILL_SLOPE 12.5, PBLUC_R_SQUARED 0.376, read-out: LUCIFERASE INFECTION ASSAY - IC50) is 4.98.

In the case of `Cc1c(-c2ccccc2)sc2[nH]c(SC(C(=O)c3ccccc3)c3ccccc3)nc(=O)c12` (stereo unspecified), the IC90 is more than 10 µM. In addition, the pIC50 (HEPG2TOX_HILL_SLOPE 4.76, HEPG2TOX_R_SQUARED 0.813, PBLUC_HILL_SLOPE 2.74, PBLUC_R_SQUARED 0.111, read-out: LUCIFERASE INFECTION ASSAY - IC50) was 5.17.

With `Cc1sc2ncnc(N/N=C/c3cn(-c4ccccc4)nc3-c3ccc4c(c3)OCCO4)c2c1C`, the IC90 was determined as 3.63 µM. For the same compound, the pIC50 (HEPG2TOX_HILL_SLOPE 4.65, HEPG2TOX_R_SQUARED 0.952, PBLUC_HILL_SLOPE 26.5, PBLUC_R_SQUARED 0.19, read-out: LUCIFERASE INFECTION ASSAY - IC50) was 5.48.

With `COCCCNc1nccc2nc(-c3cccc(OC(F)(F)F)c3)[nH]c12`, the IC90 was more than 10 µM. Besides, the pIC50 (HEPG2TOX_HILL_SLOPE 4.74, HEPG2TOX_R_SQUARED 0.77, PBLUC_HILL_SLOPE 3.71, PBLUC_R_SQUARED 0.224, read-out: LUCIFERASE INFECTION ASSAY - IC50) is 5.24.

As for `COc1cc(-c2cnn3ccc(Nc4ccc(C(C)C)cc4)nc23)cc(OC)c1OC`, the IC90 worked out at 4.97 µM. The pIC50 (HEPG2TOX_HILL_SLOPE 4.98, HEPG2TOX_R_SQUARED 0.891, PBLUC_HILL_SLOPE 3.46, PBLUC_R_SQUARED 0.366, read-out: LUCIFERASE INFECTION ASSAY - IC50) was 5.58.

With `C/C(=N\NC(=N)N)c1ccc(C2CCCCC2)cc1`, the IC90 is more than 10 µM. For the setting “HEPG2TOX_HILL_SLOPE 4.72, HEPG2TOX_R_SQUARED 0.94, read-out: LUCIFERASE INFECTION ASSAY - IC50”, the pIC50 is less than 5.00.

As for `CC(=O)c1sc(SCCS(=O)(=O)c2ccc(Cl)cc2)c2c1CCCC2=O`, the IC90 was more than 7.69 µM. Also, the pIC50 (HEPG2TOX_HILL_SLOPE 4.99, HEPG2TOX_R_SQUARED 0.387, PBLUC_HILL_SLOPE 14.8, PBLUC_R_SQUARED 0.11, read-out: LUCIFERASE INFECTION ASSAY - IC50) was less than 5.11.

On to `O=[N+]([O-])c1ccc(SCCO)c2nonc12`, for which the IC90 is 12.8 µM. In addition, the pIC50 (HEPG2TOX_HILL_SLOPE 4.76, HEPG2TOX_R_SQUARED 0.8, PBLUC_HILL_SLOPE 15.1, PBLUC_R_SQUARED 0.318, read-out: LUCIFERASE INFECTION ASSAY - IC50) is 4.96.

For the compound `CCC(C)NC(=O)c1c(NC(=O)c2cc(F)ccc2F)nc2ccc(C)cn12` (stereo unspecified), the concentration for an effect of 90% (IC90) amounted to 3.36 µM. Besides, the pIC50 (HEPG2TOX_HILL_SLOPE 5, HEPG2TOX_R_SQUARED 0.803, PBLUC_HILL_SLOPE 11.7, PBLUC_R_SQUARED 0.232, read-out: LUCIFERASE INFECTION ASSAY - IC50) is 5.56.

As to `CCN1C(=O)N(CCCc2cccnc2)C(=O)C12CCN(Cc1ccc(-c3ccccc3C)cc1)CC2`, the IC90 was 2.68 µM. In addition, the pIC50 (HEPG2TOX_HILL_SLOPE 4.7, HEPG2TOX_R_SQUARED 0.961, PBLUC_HILL_SLOPE 9.72, PBLUC_R_SQUARED 0.497, read-out: LUCIFERASE INFECTION ASSAY - IC50) was 5.67.

For `CC12CCC(=O)C(C(F)(F)F)=C1C=CC1C2CCC2(C)C(O)CCC12` (stereo unspecified), the IC90 came to 3.6 µM. Under “HEPG2TOX_HILL_SLOPE 4.77, HEPG2TOX_R_SQUARED 0.78, PBLUC_HILL_SLOPE 14.8, PBLUC_R_SQUARED 0.24, read-out: LUCIFERASE INFECTION ASSAY - IC50”, the negative-log IC50 (pIC50) was 5.51.

As to `Cn1nnnc1Sc1nc(-c2ccccc2)nc2ccccc12`, the IC90 was determined as 5.09 µM. Moreover, the pIC50 (HEPG2TOX_HILL_SLOPE 4.8, HEPG2TOX_R_SQUARED 0.994, PBLUC_HILL_SLOPE 8.61, PBLUC_R_SQUARED 0.614, read-out: LUCIFERASE INFECTION ASSAY - IC50) was 5.40.

`CC(=O)c1cccc(-c2ccc3ncc(-c4cccc(O)c4)n3n2)c1`: the IC90 is 3.6 µM. Besides, the pIC50 (HEPG2TOX_HILL_SLOPE 4.7, HEPG2TOX_R_SQUARED 0.977, PBLUC_HILL_SLOPE 30, PBLUC_R_SQUARED 0.547, read-out: LUCIFERASE INFECTION ASSAY - IC50) is 5.48.

As to `COc1cc(OC)cc(-c2cnc3cnc(-c4ccc(N5CCN(C)CC5)nc4)cn23)c1`, the IC90 was more than 7.67 µM. The pIC50 (HEPG2TOX_HILL_SLOPE 4.69, HEPG2TOX_R_SQUARED 0.215, PBLUC_HILL_SLOPE 12, PBLUC_R_SQUARED 0.625, read-out: LUCIFERASE INFECTION ASSAY - IC50) was 5.14.

`CCS(=O)(=O)c1ncc(Cl)c(C(=O)Nc2cc(Cl)cc(Cl)c2)n1`: the IC90 is 3.19 µM. For the same compound, the pIC50 (HEPG2TOX_HILL_SLOPE 4.63, HEPG2TOX_R_SQUARED 0.595, PBLUC_HILL_SLOPE 15.4, PBLUC_R_SQUARED 0.531, read-out: LUCIFERASE INFECTION ASSAY - IC50) was 5.56.

`COc1cc(/C=C/C(=O)c2cccc(Cl)c2)cc(Br)c1OCC(=O)N(C)C`: the IC90 turned out to be 4.57 µM. Further, the pIC50 (HEPG2TOX_HILL_SLOPE 4.93, 12.4, HEPG2TOX_R_SQUARED 0.976, 0.384, PBLUC_HILL_SLOPE 9.73, 46.2, PBLUC_R_SQUARED 0.151, 0.563, read-out: LUCIFERASE INFECTION ASSAY - IC50) is 5.41.

Regarding `O=C(c1c[nH]c(-c2ccnc(N3CCCC3)c2)c1)c1cc(Cl)ccc1O`, the 90% effect concentration (IC90) stood at 1.6 µM. Besides, the negative-log IC50 (pIC50) (HEPG2TOX_HILL_SLOPE 4.74, 0.999, HEPG2TOX_R_SQUARED 0.925, 0.982, PBLUC_HILL_SLOPE 1.70, 2.23, PBLUC_R_SQUARED 0.381, 0.812, read-out: LUCIFERASE INFECTION ASSAY - IC50) was 6.22.

In the case of `Cc1ccc(C(C)NC(=O)Cc2c(C)[nH]c(-c3ccccn3)nc2=O)cc1` (stereo unspecified), the IC90 was more than 10 µM. Further, the pIC50 (HEPG2TOX_HILL_SLOPE 4.86, HEPG2TOX_R_SQUARED 0.498, PBLUC_HILL_SLOPE 12, PBLUC_R_SQUARED 0.399, read-out: LUCIFERASE INFECTION ASSAY - IC50) was 5.03.

Regarding `CCCOc1ccc2cc(C(=O)c3c(C)[nH]c(C)c3C(=O)OCC)oc2c1`, the IC90 is more than 10 µM. Moreover, under “HEPG2TOX_HILL_SLOPE 4.85, HEPG2TOX_R_SQUARED 0.69, PBLUC_HILL_SLOPE 11.9, PBLUC_R_SQUARED 0.276, read-out: LUCIFERASE INFECTION ASSAY - IC50”, the negative-log IC50 (pIC50) was 5.03.

For `O=S(=O)(c1ccc2ccccc2c1)N1CCCC1c1ccncc1` (stereo unspecified), the IC90 is more than 10 µM. In addition, the pIC50 (HEPG2TOX_HILL_SLOPE 4.75, HEPG2TOX_R_SQUARED 0.828, PBLUC_HILL_SLOPE 11, PBLUC_R_SQUARED 0.196, read-out: LUCIFERASE INFECTION ASSAY - IC50) was 5.03.
